According to article PMC2649430 (Neuropharmacology, 2008):
Residue numbers refer to the chain shown, from its start. Read-outs that look alike come from different tables or passages of the source.

Experiments:
[1] = target: T1, wild type 5-HT3 receptors (Mus musculus, UniProt P23979)
T1 sequence (P23979 24-489): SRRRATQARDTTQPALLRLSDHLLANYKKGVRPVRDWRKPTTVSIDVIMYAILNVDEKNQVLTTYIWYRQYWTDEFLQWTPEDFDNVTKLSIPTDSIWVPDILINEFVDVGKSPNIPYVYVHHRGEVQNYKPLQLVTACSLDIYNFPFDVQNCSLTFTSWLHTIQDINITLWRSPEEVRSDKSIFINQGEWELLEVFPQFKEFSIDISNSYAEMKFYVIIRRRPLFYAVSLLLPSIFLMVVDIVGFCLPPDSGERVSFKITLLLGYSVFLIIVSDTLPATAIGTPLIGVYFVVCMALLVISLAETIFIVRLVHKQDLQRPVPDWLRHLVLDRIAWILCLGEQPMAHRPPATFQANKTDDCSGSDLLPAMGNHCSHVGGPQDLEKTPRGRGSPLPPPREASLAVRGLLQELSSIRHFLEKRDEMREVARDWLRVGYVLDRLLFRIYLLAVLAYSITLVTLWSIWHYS

[2] = target: T2, E218Q mutant 5-HT3 receptor (Mus musculus, UniProt P23979, E218Q); format: cell-based; details: 1 mM 5-HT, n > 50
T2 sequence (P23979 24-489 E218Q): T1 sequence (P23979 24-489) with E195Q

[3] = target: T3, E213Q mutant 5-HT3 receptor (Mus musculus, UniProt P23979, E213Q); assay: Whole-cell patch-clamp, 5-HT dose-response, E213Q mutant in HEK 293 cells; format: cell-based; details: for Hill slope: E213Q, no added MgCl2
T3 sequence (P23979 24-489 E213Q): T1 sequence (P23979 24-489) with E190Q

[4] = target: T4, V219L mutant 5-HT3 receptor (Mus musculus, UniProt P23979, V219L); assay: Whole-cell patch-clamp, V219L mutant in HEK 293 cells; format: cell-based; details: 1 mM 5-HT, n > 50
T4 sequence (P23979 24-489 V219L): T1 sequence (P23979 24-489) with V196L

[5] = target: T5, E215Q mutant 5-HT3 receptor (Mus musculus, UniProt P23979, E215Q); details: no added MgCl2
T5 sequence (P23979 24-489 E215Q): T1 sequence (P23979 24-489) with E192Q

[6] = target: T6, E277A/S297R mutant 5-HT3 receptor (Mus musculus, UniProt P23979, E277A/S297R); format: cell-based; details: no added MgCl2
T6 sequence (P23979 24-489 E277A/S297R): T1 sequence (P23979 24-489) with E254A, S274R

[7] = target: T7, D204N mutant 5-HT3 receptor (Mus musculus, UniProt P23979, D204N); assay: Whole-cell patch-clamp, D204N mutant in HEK 293 cells; format: cell-based; details: 1 mM 5-HT, n > 50
T7 sequence (P23979 24-489 D204N): T1 sequence (P23979 24-489) with D181N

## NCCc1c[nH]c2ccc(O)cc12 [5-HT, 5-hydroxytryptamine]
[1]; Ext. Ca2+ 0 mM, no added MgCl2
  Hill slope: 2.39 ± 0.18
[1]; Ext. Ca2+ 1 mM, no added MgCl2
  Hill slope: 2.24 ± 0.19
[1]; Ext. Ca2+ 3 mM, no added MgCl2
  Hill slope: 2.08 ± 0.19
[1]; Ext. Ca2+ 10 mM, no added MgCl2
  Hill slope: 2.08 ± 0.26
[1]; physiological conditions (1.0 mM CaCl2, 1.0 mM MgCl2), n = 23
  Hill slope: 2.31 ± 0.25
[2]
  current response to 5-HT: unable to elicit a response
[3]; E213Q versus wild type
  rates of desensitisation, faster than wild type responses: ~4 fold
[3]; Ext. Ca2+ 0 mM
  Hill slope: 2.45 ± 0.22
[3]; Ext. Ca2+ 1 mM
  Hill slope: 2.39 ± 0.16
[3]; Ext. Ca2+ 3 mM
  Hill slope: 2.42 ± 0.16
[3]; Ext. Ca2+ 10 mM
  Hill slope: 1.62 ± 0.19
[4]
  current response to 5-HT: unable to elicit a response
[5]; Ext. Ca2+ 0 mM
  Hill slope: 2.98 ± 0.11
[5]; Ext. Ca2+ 1 mM
  Hill slope: 3.09 ± 0.39
[5]; Ext. Ca2+ 3 mM
  Hill slope: 2.54 ± 0.19
[5]; Ext. Ca2+ 10 mM
  Hill slope: 1.90 ± 0.24
[6]; Ext. Ca2+ 0 mM
  Hill slope: 2.04 ± 0.16
[6]; Ext. Ca2+ 1 mM
  Hill slope: 1.64 ± 0.25
[6]; Ext. Ca2+ 3 mM
  Hill slope: 1.62 ± 0.30
  I/I max: 0.99 ± 0.03
[6]; Ext. Ca2+ 10 mM
  Hill slope: 1.35 ± 0.18
  I/I max: 0.96 ± 0.02
[7]
  current response to 5-HT: unable to elicit a response
